The target of the assay is human P2X3 receptor (Homo sapiens (Human), UniProt P56373). Description: P2X3 receptor inhibition, ATP-evoked Fluo-3 calcium fluorescence (FDSS 3000). It counts as cell-based. The conditions noted are these: C6BU-1 cell transfected with human P2X3 receptor gene; ATP-evoked Fluo-3 fluorescence. In outline: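 C6BU-1 cells stably transfected with human P2X3, loaded with 4 μM Fluo-3-AM for 1 h at 37 °C in HEPES buffer pH 7.5 with probenecid. Compound added 5 min before 40 nM ATP solution; fluorescence followed 3 min. IC50 from ratio of peak post-ATP to baseline fluorescence.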

Structures are written as SMILES.

IC50 data for 66 compounds are collected here from patent publication US8575197B2, “Pyrolinone derivative and pharmaceutical composition comprising the same” (Shionogi & Co., Ltd., priority 2008, dated 2013).

human P2X3 receptor, sequence (P56373 whole entry): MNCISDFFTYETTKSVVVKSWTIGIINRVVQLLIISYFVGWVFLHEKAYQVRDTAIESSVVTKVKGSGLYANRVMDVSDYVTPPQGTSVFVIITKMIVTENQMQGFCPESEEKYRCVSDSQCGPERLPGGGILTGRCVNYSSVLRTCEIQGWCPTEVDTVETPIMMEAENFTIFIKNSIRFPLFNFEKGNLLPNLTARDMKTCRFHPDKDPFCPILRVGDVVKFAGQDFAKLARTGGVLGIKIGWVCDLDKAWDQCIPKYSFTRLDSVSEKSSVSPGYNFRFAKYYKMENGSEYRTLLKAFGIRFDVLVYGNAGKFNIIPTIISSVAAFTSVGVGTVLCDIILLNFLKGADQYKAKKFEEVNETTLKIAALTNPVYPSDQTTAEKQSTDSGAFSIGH

As to `CCOc1ncccc1C1C(C(=O)C(C)C)=C(O)C(=O)N1c1ccc(-c2ccsc2)cc1` (stereo not drawn) [Compound I-441], the IC50 (as a rule, the concentration at which inhibition is half-maximal) came out at 13 nM.

Consider `COc1ccccc1C1c2c(C(C)(C)C)n[nH]c2C(=O)N1c1ccc(OC(C)C)cc1` (stereo not drawn) [II-002], for which the IC50 came to 217 nM.

In the case of `Cc1ccc(-c2ccc(N3C(=O)C(O)=C(C(=O)CC(C)C)C3c3cccnc3C(=O)NCC#N)cc2)s1` (stereo not drawn) [Compound I-577], the IC50 was determined as 47 nM.

Regarding `COc1ncccc1C1c2c(C(C)(C)C)n[nH]c2C(=O)N1c1ccc(-c2ccco2)nc1` (stereo not drawn) [II-271], the IC50 is 153 nM.

Regarding `CC(C)CC(=O)C1=C(O)C(=O)N(c2ccc(-c3ccsc3)cc2)C1c1ccccc1OC(C)C` (stereo not drawn) [Compound I-293], the IC50 amounted to 12 nM.

Regarding `COc1ccc(C(=O)C2=C(O)C(=O)N(c3ccc(-c4ccsc4)cc3)C2C2COC(C)(C)OC2)cn1` (stereo not drawn) [Compound I-288], the IC50 turned out to be 36 nM.

Turning to `CCN(C)C(=O)c1ccccc1C1C(C(=O)C(C)C)=C(O)C(=O)N1c1ccc(-c2csc(C)c2)cc1` (stereo not drawn) [Compound I-494], the IC50 worked out at 53 nM.

For `COc1ncccc1C1c2c(C(C)(C)CO)n[nH]c2C(=O)N1c1ccc(-c2ccsc2)cc1` (stereo not drawn) [II-109], the IC50 was found to be 21 nM.

On to `COc1ccccc1C1c2c(C(C)C)n[nH]c2C(=O)N1c1ccc(-c2ccsc2)c(C(N)=O)c1` (stereo not drawn) [II-242], for which the IC50 was found to be 152 nM.

Take `COC1=C(C(=O)CC(C)C)C(c2ccccc2OC)N(c2ccc(-c3ccc(C)s3)cc2)C1=O` (stereo not drawn) [Compound I-329]: the IC50 stood at 578 nM.

On to `Cc1ccc(-c2ccc(N3C(=O)C(O)=C(C(=O)CC(C)C)C3c3cccnc3C(=O)NCCN(C)C)cc2)s1` (stereo not drawn) [Compound I-583], for which the IC50 came to 10 nM.

`COc1ccccc1C1C(C(=O)CC(C)C)=C(O)C(=O)N1c1ccc(-c2cscn2)cc1` (stereo not drawn) [Compound I-420]: the IC50 was 257 nM.

For `CNC(=O)C(C)(C)c1n[nH]c2c1C(c1ccccc1OC)N(c1ccc(-c3ccsc3)cc1)C2=O` (stereo not drawn) [II-170], the IC50 was found to be 34 nM.

`CC(C)c1n[nH]c2c1C(c1ccccc1OCC(=N)NO)N(c1ccc(-c3ccsc3)cc1)C2=O` (stereo not drawn) [II-185]: the IC50 worked out at 11 nM.

For the compound `COc1ccc(F)cc1C1c2c(C(C)(C)C)n[nH]c2C(=O)N1c1ccc(-c2ccon2)cc1` (stereo not drawn) [II-062], the IC50 came to 112 nM.

With `COc1ccccc1C1C(C(=O)CC(C)C)=C(O)C(=O)N1c1ccc(-c2csc(C)c2)cc1` (stereo not drawn) [Compound I-379], the IC50 was determined as 118 nM.

On to `CC(C)C(=O)C1=C(O)C(=O)N(c2ccc(-c3ccsc3)cc2)C1c1ccccc1OCC(=N)NO` (stereo not drawn) [Compound I-220], for which the IC50 is 5 nM.

In the case of `COCc1ccccc1C1C(C(=O)CC(C)C)=C(O)C(=O)N1c1ccc(-c2noc(C)n2)cc1` (stereo not drawn) [Compound I-315], the IC50 amounted to 252 nM.

Turning to `CC(C)(C)c1n[nH]c2c1C(c1ccccc1OCC(N)=O)N(c1ccc(-c3ccsc3)cc1)C2=O` (stereo not drawn) [II-169], the IC50 was 4 nM.

As to `Cc1ccc(-c2ccc(N3C(=O)C(O)=C(C(=O)CC(C)C)C3c3ccccc3OC(F)(F)F)cc2)o1` (stereo not drawn) [Compound I-362], the IC50 is 40 nM.

In the case of `CC(C)CC(=O)C1=C(O)C(=O)N(c2ccc(-c3ccsc3)cc2)C1c1ccccc1C(=O)N(C)C` (stereo not drawn) [Compound I-405], the IC50 was determined as 31 nM.

Turning to `COCCOc1ncccc1C1c2c(C(C)(C)C)n[nH]c2C(=O)N1c1ccc(-c2ccsc2)cc1` (stereo not drawn) [II-032], the IC50 was 6 nM.

Regarding `COc1ccccc1C1C(C(=O)c2ccco2)=C(O)C(=O)N1c1ccc(-c2ccsc2)cc1` (stereo not drawn) [Compound I-211], the IC50 is 157 nM.

On to `COCc1ccccc1C1C(C(=O)CC(C)C)=C(O)C(=O)N1c1ccc(-c2ccsc2)cc1` (stereo not drawn) [Compound I-252], for which the IC50 was 10 nM.

With `CC(C)(C)C(=O)C1=C(O)C(=O)N(c2ccc(-c3cccs3)cc2)C1c1ccccc1OCC(=O)O` (stereo not drawn) [Compound I-119], the IC50 was determined as 98 nM.

`COCCOc1cc(F)ccc1C1C(C(=O)CC(C)C)=C(O)C(=O)N1c1ccc(-c2ccsc2)cc1` (stereo not drawn) [Compound I-364]: the IC50 amounted to 9 nM.

Take `CC(C)Oc1ccccc1C1C(C(=O)C(C)C)=C(O)C(=O)N1c1ccc(N2CCCC2)cc1` (stereo not drawn) [Compound I-459]: the IC50 came to 26 nM.

Turning to `COc1ccccc1C1c2c(C(C)(C)CO)n[nH]c2C(=O)N1c1ccc(-c2ccsc2)cc1` (stereo not drawn) [II-217], the IC50 came to 3 nM.

In the case of `CCC(CC)C1C(C(=O)c2ccc(C(=O)N(C)C)cc2)=C(O)C(=O)N1c1ccc(-c2noc(C)n2)cc1` (stereo not drawn) [Compound I-002], the IC50 amounted to 24 nM.

As for `COCCOc1ncccc1C1C(C(=O)C(C)C)=C(O)C(=O)N1c1ccc(-c2ccoc2)cc1` (stereo not drawn) [Compound I-234], the IC50 was 56 nM.

With `COc1ccccc1C1c2c(C(C)(C)C)n[nH]c2C(=O)N1c1ccc(SC(F)(F)F)cc1` (stereo not drawn) [II-004], the IC50 amounted to 378 nM.

In the case of `CC(C)(C)c1n[nH]c2c1C(c1ccccc1OCCO)N(c1ccc(-c3ccco3)cc1)C2=O` (stereo not drawn) [II-105], the IC50 stood at 13 nM.

`Cc1ccc(-c2ccc(N3C(=O)C(O)=C(C(=O)CC(C)C)C3c3ccccc3C(=O)N(C)C)cc2)s1` (stereo not drawn) [Compound I-406]: the IC50 turned out to be 29 nM.

As for `CC(C)(C)c1n[nH]c2c1C(c1ccccc1OCCO)N(c1ccc(-c3ccoc3)cc1)C2=O` (stereo not drawn) [II-124], the IC50 was determined as 8 nM.

With `COCCOc1ccccc1C1C(C(=O)C(C)C)=C(O)C(=O)N1c1ccc(-c2csc(C)c2)cc1` (stereo not drawn) [Compound I-261], the IC50 was 19 nM.

With `Cc1nc(-c2ccc(N3C(=O)C(O)=C(C(=O)C(C)C)C3c3ccccc3CCC(=O)NC(C)C)cc2)no1` (stereo not drawn) [Compound I-594], the IC50 was 715 nM.

Turning to `COc1ccc(C(=O)C2=C(O)C(=O)N(c3ccc(-c4cc(C)no4)cc3)C2c2ccccc2OC)cc1` (stereo not drawn) [Compound I-027], the IC50 is 40 nM.

As for `COCCOc1ccccc1C1C(C(=O)C(C)C)=C(O)C(=O)N1c1ccc(-c2cscn2)cc1` (stereo not drawn) [Compound I-417], the IC50 was 181 nM.

Regarding `COCCOc1ccccc1C1C(C(=O)C(C)C)=C(O)C(=O)N1c1ccc(-c2cc(C)on2)cc1` (stereo not drawn) [Compound I-481], the IC50 stood at 378 nM.

On to `COCCOc1ncccc1C1C(C(=O)C(C)C)=C(O)C(=O)N1c1ccc(-c2ccsc2)cc1` (stereo not drawn) [Compound I-169], for which the IC50 came to 19 nM.

In the case of `COc1ccccc1C1c2c(C(C)(C)C)n[nH]c2C(=O)N1c1ccc(-c2cc(NC(C)=O)no2)cc1` (stereo not drawn) [II-147], the IC50 is 977 nM.

On to `COCCOc1ccccc1C1C(C(=O)C(C)C)=C(O)C(=O)N1c1ccc(-c2ccsc2)cc1` (stereo not drawn) [Compound I-161], for which the IC50 was determined as 7 nM.

On to `CC(C)C(=O)C1=C(O)C(=O)N(c2ccc(-c3ccsc3)cc2)C1c1ccccc1OCC#N` (stereo not drawn) [Compound I-183], for which the IC50 was 4 nM.

On to `COCc1ncccc1C1C(C(=O)C(C)(C)C)=C(O)C(=O)N1c1ccc(-c2ccsc2)cc1` (stereo not drawn) [Compound I-162], for which the IC50 amounted to 41 nM.

With `Cc1nc(-c2ccc(N3C(=O)C(O)=C(C(=O)C(C)C)C3c3ccccc3N3CCOCC3)cc2)no1` (stereo not drawn) [Compound I-487], the IC50 worked out at 167 nM.

As to `CCC(CC)(CO)c1n[nH]c2c1C(c1ccccc1OC)N(c1ccc(-c3ccon3)cc1)C2=O` (stereo not drawn) [II-145], the IC50 worked out at 33 nM.

Take `COCCOc1ncccc1C1C(C(=O)CC(C)C)=C(O)C(=O)N1c1ccc(-c2ccc(C)o2)cc1` (stereo not drawn) [Compound I-360]: the IC50 amounted to 21 nM.

Regarding `Cc1cc(-c2ccc(N3C(=O)C(O)=C(C(=O)C(C)C)C3c3ccccc3OCC3OCCO3)cc2)cs1` (stereo not drawn) [Compound I-500], the IC50 came to 12 nM.

Regarding `Cc1ccc(-c2ccc(N3C(=O)C(O)=C(C(=O)CC(C)C)C3c3ccccc3C(=O)N3CCOCC3)cc2)o1` (stereo not drawn) [Compound I-506], the IC50 stood at 112 nM.

Consider `CC(C)Oc1ccccc1C1C(C(=O)C(C)C)=C(O)C(=O)N1c1ccc(-c2ccsc2)cc1` (stereo not drawn) [Compound I-299], for which the concentration for half-maximal inhibition (IC50) turned out to be 8 nM.

As for `Cc1cc(-c2ccc(N3C(=O)C(O)=C(C(=O)CC(C)C)C3c3ccccc3C(=O)N(C)C)cc2)cs1` (stereo not drawn) [Compound I-404], the IC50 turned out to be 71 nM.

`CN(C)C(=O)c1ccccc1C1C(C(=O)C2CCCC2)=C(O)C(=O)N1c1ccc(-c2ccsc2)cc1` (stereo not drawn) [Compound I-514]: the half-inhibitory concentration (IC50) is 138 nM.

With `COc1ccccc1C1c2c(C(C)(C)C)n[nH]c2C(=O)N1c1ccc(SC)cc1` (stereo not drawn) [II-201], the IC50 was found to be 33 nM.

In the case of `COc1ccccc1C1c2c(C(C)(C)C)n[nH]c2C(=O)N1c1ccc(-c2csc(C)c2)cc1` (stereo not drawn) [II-274], the IC50 amounted to 19 nM.

Turning to `Cc1ccc(-c2ccc(N3C(=O)C(O)=C(C(=O)C(C)C)C3c3ccccc3OC(C)C)cc2)s1` (stereo not drawn) [Compound I-400], the IC50 is 22 nM.

In the case of `CC(C)c1n[nH]c2c1C(c1ccccc1OCC(=O)O)N(c1ccc(-c3ccsc3)cc1)C2=O` (stereo not drawn) [II-047], the IC50 stood at 11 nM.

In the case of `COC(=O)COc1ccccc1C1c2c(C(C)(C)C)n[nH]c2C(=O)N1c1ccc(-c2ccsc2)cc1` (stereo not drawn) [II-020], the IC50 worked out at 8 nM.

`CC(C)C(=O)C1=C(O)C(=O)N(c2ccc(-c3ccsc3)cc2)C1c1ccccc1OCC(CO)CO` (stereo not drawn) [Compound I-456]: the IC50 worked out at 6 nM.

Consider `Cc1nc(-c2ccc(N3C(=O)C(O)=C(C(=O)C(C)C)C3c3ccccc3OC(F)(F)F)cc2)no1` (stereo not drawn) [Compound I-314], for which the IC50 is 329 nM.

With `CC(C)c1n[nH]c2c1C(c1ccccc1OCC(N)=O)N(c1ccc(-c3ccsc3)cc1)C2=O` (stereo not drawn) [II-050], the IC50 stood at 7 nM.

With `CC(C)c1n[nH]c2c1C(c1ccccc1NC(N)=O)N(c1ccc(-c3ccsc3)cc1)C2=O` (stereo not drawn) [II-087], the IC50 is 9 nM.

With `COc1ccccc1C1c2c(CO)n[nH]c2C(=O)N1c1ccc(-c2ccsc2)cc1` (stereo not drawn) [II-182], the IC50 is 60 nM.

Turning to `CC(C)c1n[nH]c2c1C(c1ccccc1OCCS(C)(=O)=O)N(c1ccc(-c3ccsc3)cc1)C2=O` (stereo not drawn) [II-245], the IC50 turned out to be 6 nM.

For the compound `COc1ncccc1C1C(C(=O)C(C)(C)C)=C(O)C(=O)N1c1ccc(SC)cc1` (stereo not drawn) [Compound I-066], the IC50 worked out at 434 nM.

As to `COc1cc(F)ccc1C1C(C(=O)CC(C)C)=C(O)C(=O)N1c1ccc(-c2ccsc2)cc1` (stereo not drawn) [Compound I-326], the IC50 worked out at 27 nM.

As for `CC(C)C(=O)C1=C(O)C(=O)N(c2ccc(-c3ccsc3)cc2)C1c1ccccn1` (stereo not drawn) [Compound I-219], the IC50 is 324 nM.
